Data as given in ChEMBL document CHEMBL1275270, “Antioxidant activity of unexplored indole derivatives: synthesis and screening” (Eur J Med Chem, 2010).
Active and inactive are the calls of the source. No cut-off for these calls is given here.

Experiments:
Assay type in all cases: functional
[1] = Antioxidant activity assessed as superoxide radical scavenging activity by NBT reduction assay
[2] = Antioxidant activity assessed as inhibition of H2O2-induced oxidation of lucigenin
[3] = Antioxidant activity assessed as trolox equivalent of peroxyl radical scavenging activity by ORAC assay
[4] = Antioxidant activity assessed as inhibition of HOCl-induced oxidation of DHR by rhodamine 123 staining
[5] = Antioxidant activity assessed as inhibition of singlet oxygen-induced oxidation of DHR by rhodamine 123 staining
[6] = Antioxidant activity assessed as inhibition of nitric oxide-induced oxidation of non-fluorescent DAF-2 by fluorescence assay
[7] = Antioxidant activity assessed as inhibition of peroxynitrite anion-induced oxidation of non-fluorescent DHR by rhodamine 123 staining in absence of NaHCO3
[8] = Antioxidant activity assessed as inhibition of peroxynitrite anion-induced oxidation of non-fluorescent DHR by rhodamine 123 staining in presence of NaHCO3

COC(=O)[C@@H](N)Cc1c[nH]c2ccccc12 [TRYPTOPHAN METHYL ESTER]
Activity [1]: inactive | inhibition [2]: inactive | fold change (FC) [3]: 2.6 | IC50 [4]: 9.6 µM | IC50 ([5]; read-out: IC50): 1040 µM | IC50 [6]: Not Active | IC50 ([7]; read-out: IC50): 47.8 µM | IC50 [8]: 13.1 µM

COC(=O)[C@H](Cc1cn(CCC(C)C)c2ccccc12)NC(C)=O
Activity [1]: inactive | inhibition [2]: inactive | fold change (FC) [3]: 0.28 | IC50 [4]: 8.35 µM | IC50 ([5]; read-out: IC50): 718 µM | IC50 [6]: Not Active | IC50 ([7]; read-out: IC50): 548 µM | IC50 [8]: 315 µM

CC(C)=CCn1cc(CCN)c2ccccc21
Activity [1]: inactive | inhibition [2]: inactive | fold change (FC) [3]: 0.96 | IC50 [4]: 26.2 µM | IC50 ([5]; read-out: IC50): 618 µM | IC50 ([6]; read-out: IC50): 1430 µM | IC50 ([7]; read-out: IC50): 905 µM | IC50 [8]: 234 µM

COC(=O)C(Cc1cn(CC=C(C)C)c2ccccc12)N1C(=O)c2ccccc2C1=O (stereo not given)
Activity [1]: inactive | inhibition [2]: inactive | fold change (FC) [3]: 0.36 | IC50 [4]: 34.3 µM | IC50 ([5]; read-out: IC50): 2860 µM | IC50 [6]: Not Active | IC50 [7]: Not Active | IC50 [8]: 241 µM

COC(=O)[C@H](Cc1cn(C/C=C/c2ccccc2)c2ccccc12)NC(C)=O
Activity [1]: inactive | inhibition [2]: inactive | fold change (FC) [3]: 0.44 | IC50 [4]: 67.7 µM | IC50 ([5]; read-out: IC50): 971 µM | IC50 [6]: Not Active | IC50 ([7]; read-out: IC50): 218 µM | IC50 [8]: 36.3 µM

CC(C)=CCn1cc(CCN2C(=O)c3ccccc3C2=O)c2ccccc21
Activity [1]: inactive | inhibition [2]: inactive | fold change (FC) [3]: inactive | IC50 [4]: 6.34 µM | IC50 [5]: Not Active | IC50 [6]: Not Active | IC50 [7]: Not Active | IC50 [8]: 192 µM

COC(=O)C(Cc1c[nH]c2ccccc12)N1C(=O)c2ccccc2C1=O (stereo not given)
Activity [1]: inactive | inhibition [2]: inactive | fold change (FC) [3]: 1.09 | IC50 [4]: 27.3 µM | IC50 ([5]; read-out: IC50): 943 µM | IC50 [6]: Not Active | IC50 ([7]; read-out: IC50): 208 µM | IC50 [8]: 29.5 µM

COC(=O)[C@H](Cc1c[nH]c2ccccc12)NC(C)=O
Activity [1]: inactive | inhibition [2]: inactive | fold change (FC) [3]: 1.21 | IC50 [4]: 50 µM | IC50 ([5]; read-out: IC50): 1560 µM | IC50 [6]: Not Active | IC50 ([7]; read-out: IC50): 223 µM | IC50 [8]: 22.9 µM

N[C@@H](Cc1c[nH]c2ccccc12)C(=O)O [TRYPTOPHAN]
Activity [1]: inactive | inhibition [2]: inactive | fold change (FC) [3]: 2.74 | IC50 [4]: 3.5 µM | IC50 ([5]; read-out: IC50): 992 µM | IC50 ([6]; read-out: IC50): 1150 µM | IC50 ([7]; read-out: IC50): 31.9 µM | IC50 [8]: 19.2 µM

O=C1c2ccccc2C(=O)N1CCc1c[nH]c2ccccc12
Activity [1]: inactive | inhibition [2]: inactive | fold change (FC) [3]: 1.46 | IC50 [4]: 11.1 µM | IC50 [5]: Not Active | IC50 [6]: Not Active | IC50 ([7]; read-out: IC50): 93 µM | IC50 [8]: 40.9 µM

CC(C)CCn1cc(CCN2C(=O)c3ccccc3C2=O)c2ccccc21
Activity [1]: inactive | inhibition [2]: inactive | fold change (FC) [3]: inactive | IC50 [4]: 10.6 µM | IC50 ([5]; read-out: IC50): 1030 µM | IC50 ([6]; read-out: IC50): 1530 µM | IC50 [7]: Not Active | IC50 [8]: 237 µM

NCCc1c[nH]c2ccccc12 [TRYPTAMINE]
Activity [1]: inactive | inhibition [2]: inactive | fold change (FC) [3]: 1.86 | IC50 [4]: 6 µM | IC50 ([5]; read-out: IC50): 682 µM | IC50 ([6]; read-out: IC50): 672 µM | IC50 ([7]; read-out: IC50): 31.8 µM | IC50 [8]: 10.4 µM

CC(C)=CCn1cc(CC(N)C(=O)O)c2ccccc21 (stereo not given)
Activity [1]: inactive | inhibition [2]: inactive | fold change (FC) [3]: 1.05 | IC50 [4]: 4.13 µM | IC50 ([5]; read-out: IC50): 841 µM | IC50 ([6]; read-out: IC50): 208 µM | IC50 ([7]; read-out: IC50): 94.7 µM | IC50 [8]: 42.4 µM

COC(=O)[C@H](Cc1cn(CCCc2ccccc2)c2ccccc12)NC(C)=O
Activity [1]: inactive | inhibition [2]: inactive | fold change (FC) [3]: 0.44 | IC50 [4]: 14.2 µM | IC50 ([5]; read-out: IC50): 506 µM | IC50 [6]: Not Active | IC50 [7]: Not Active | IC50 [8]: 142 µM

COC(=O)C(Cc1c(CCC(C)C)[nH]c2ccccc12)N1C(=O)c2ccccc2C1=O (stereo not given)
Activity [1]: inactive | inhibition [2]: inactive | fold change (FC) [3]: 0.97 | IC50 [4]: 3.75 µM | IC50 ([5]; read-out: IC50): 750 µM | IC50 [6]: Not Active | IC50 [7]: Not Active | IC50 [8]: 14 µM

COC(=O)C(Cc1c(CC=C(C)C)[nH]c2ccccc12)N1C(=O)c2ccccc2C1=O (stereo not given)
Activity [1]: inactive | inhibition [2]: inactive | fold change (FC) [3]: 0.45 | IC50 [4]: 7.18 µM | IC50 ([5]; read-out: IC50): 2310 µM | IC50 ([6]; read-out: IC50): 239 µM | IC50 [7]: Not Active | IC50 [8]: 28.2 µM

CC(C)=CCc1[nH]c2ccccc2c1CC(N)C(=O)O (stereo not given)
Activity [1]: inactive | inhibition [2]: inactive | fold change (FC) [3]: 0.48 | IC50 [4]: 4.56 µM

COC(=O)[C@H](Cc1cn(CC=C(C)C)c2ccccc12)NC(C)=O
Activity [1]: inactive | inhibition [2]: inactive | fold change (FC) [3]: 0.21 | IC50 [4]: 32.8 µM | IC50 ([5]; read-out: IC50): 777 µM | IC50 ([6]; read-out: IC50): 980 µM | IC50 ([7]; read-out: IC50): 545 µM | IC50 [8]: 162 µM
